Assay in all cases: NCI tumour cell line growth inhibition, 48 h
Assay [1] relates to 786-0 renal.
For assay [2], the system named is BT-549 breast.
The subject of assay [3] is EKVX NSCLC.
The subject of assay [4] is HCT-15 colon.
The subject of assay [5] is HS 578T breast.
Assay [6] concerns MCF7 breast.
The subject of assay [7] is NCI-H226 lung.
Assay [8] concerns NCI-H23 lung.
Assay [9] has as its system OVCAR-3 ovarian.
Assay [10] deals with SF-295 CNS.
For assay [11], the system named is SN12C renal.
Assay [12] deals with U251 CNS.
The test system of assay [13] is UACC-62 melanoma.
Assay [14] concerns HL-60(TB) leukemia.
Assay [15] deals with K-562 leukemia.

The values below come from PubChem BioAssay (NCI).

Molecules are shown by their SMILES.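 Results reflect a 48-hour exposure of cells in 96-well plates to compound at five concentrations. TGI denotes the concentration required for complete inhibition of growth.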 Some results are limits rather than exact numbers.

`CC(C)(Cl)C(Cl)CC/C(CBr)=C(\Cl)CBr` (stereo unspecified): the TGI is 2.68 µM in [1]; 3.27 µM in [2]; 30.1 µM in assay [3]; 3.51 µM in [4]; 4.54 µM in [5]; 6.97 µM in assay [6]. Also, the TGI amounted to 5.28 µM in [7]; 3.77 µM in assay [8]; 6.81 µM in assay [9]; 16 µM in assay [10]; 6.15 µM in assay [11]; 3.57 µM in assay [12]. This compound showed a TGI in assay [13] of 3.33 µM.

`CC(=O)OC1CC2C(=O)CC1(C)C2(C)C` (stereo unspecified): the TGI in assay [1], in assay [3], in assay [4], in [14], in assay [5] and in [15] was greater than 100 µM in each case. Moreover, the TGI in [6], in [7], in assay [8], in assay [9], in assay [10] and in [11] was greater than 100 µM throughout. Besides, the TGI in [12] and in [13] was greater than 100 µM each time.

In the case of `CC(C)(C)C1CCC2c3c([nH]c4ccccc34)C3C(=O)N(c4cc(Cl)ccc4Cl)C(=O)C3C2C1` (stereo unspecified), the TGI in assay [1], in assay [2], in assay [3], in [4], in assay [5] and in assay [15] was greater than 100 µM throughout. Also, the TGI in assay [6], in assay [7], in [8], in assay [9], in [10] and in assay [11] was greater than 100 µM each time. The compound also came in with a TGI in [13] greater than 100 µM.

In the case of `C[n+]1ccc2/c(=C\C#N)c3ccccc3n21`, the TGI was greater than 100 µM in assay [1]; 52.8 µM in [2]; 85.2 µM in [3]; greater than 100 µM in [4]; 65.6 µM in assay [14]; greater than 100 µM in [15]. Moreover, the TGI was 65 µM in assay [6]; greater than 100 µM in [7]; 40.7 µM in [8]; 34.2 µM in assay [9]; greater than 100 µM in assay [10]; greater than 100 µM in assay [11]. For the same compound, the TGI is 72.8 µM in assay [12] and greater than 100 µM in [13].

In the case of `Oc1c(Cl)c(Cl)c(O)c(-c2cnc(-c3ncc(-c4c(O)c(Cl)c(Cl)c(O)c4Cl)s3)s2)c1Cl`, the TGI in assay [1] was 53.2 µM; in assay [3], 61.5 µM; in assay [4] it was 33.3 µM; in assay [14] it was greater than 100 µM; in assay [5], 56.5 µM; in assay [15], greater than 100 µM. In addition, the TGI was 52 µM in [6]; 14 µM in assay [7]; 39.9 µM in assay [8]; 52.4 µM in assay [9]; 41.9 µM in [10]; 66.3 µM in assay [11]. Further, the TGI in assay [12] was 48.7 µM; in assay [13] it was 46.8 µM.

Consider `CC1=C(N2CC2)C(=O)C(C)=C(N2CC2)C1=O`, for which the TGI in [1] was 0.622 µM; in [2] it was 5.14 µM; in assay [3] it was 2.68 µM; in assay [4], 3.31 µM; in assay [14], 1.04 µM; in [15], 3.92 µM. In addition, the TGI in assay [6] is 1.46 µM; in [7], 1.18 µM; in [8] it was 0.19 µM; in assay [9] it was 0.658 µM; in [10], 1.47 µM; in assay [11], 1.59 µM. Besides, the TGI worked out at 0.994 µM in [12] and 0.466 µM in assay [13].

With `CCOC(OCC)[C@@H]1C[C@@H]2N(O[C@H](OC3CCCC3(c3ccccc3)c3ccccc3)[C@H](OC(C)=O)[C@@]2(CC)Cc2ccc(OC)c(OC)c2)O1` (stereo partly specified), the TGI in assay [1], in assay [2], in [3], in assay [4], in assay [15] and in assay [6] was greater than 100 µM in each case. Besides, the TGI in assay [7], in [8], in assay [9], in assay [10], in assay [11] and in [12] was greater than 100 µM throughout. The compound also returned a TGI in assay [13] greater than 100 µM.

Regarding `CC(c1ccccc1)n1c2ccccc2c2c(N)ncnc21` (stereo unspecified), the TGI turned out to be 28.6 µM in assay [1]; 24.7 µM in [3]; 59.4 µM in assay [4]; 47.8 µM in [14]; 47 µM in assay [5]; 71.9 µM in [15]. Moreover, the TGI in assay [6] came to 37.2 µM; in assay [8], 39.5 µM; in assay [9], 30.6 µM; in [10] it was 36.6 µM; in assay [12] it was 30.5 µM.

Regarding `Cc1cc2nc3c(C#N)c4c(c(Cl)n3c2cc1C)CCC4`, the TGI in assay [1] was 29.5 µM; in assay [2], 49 µM; in assay [3], greater than 100 µM; in assay [4], 37.1 µM; in assay [7], greater than 100 µM; in assay [8] it was 62.6 µM. The TGI in [9] is 49.7 µM; in assay [10], greater than 100 µM; in assay [11] it was 33.8 µM; in assay [12], 30.4 µM.

In the case of `O=C(Cn1c2ccc(Br)cc2c2nc3ccccc3nc21)N1CCOCC1`, the TGI in assay [1], in [2], in assay [4], in assay [5], in [15] and in assay [7] was greater than 100 µM throughout. The TGI in assay [8], in assay [9], in assay [10], in [11], in assay [12] and in assay [13] was greater than 100 µM in each case.

For the compound `CSc1c(S(C)=O)c2ccccc2n1C` (stereo unspecified), the TGI in assay [1], in assay [3], in [4], in assay [14], in assay [5] and in [15] was greater than 100 µM in each case. The TGI in [6], in assay [7], in assay [8], in assay [9], in assay [10] and in assay [11] was greater than 100 µM in each case. The compound further registered a TGI in [13] greater than 100 µM.
